Laboratory results reported in US11484562B2, “Composition for preventing or treating obesity comprising natural mixture extracts” (KOREA INSTITUTE OF ORIENTAL MEDICINE, priority 2018, dated 2022).

What was measured:
[1] = people taking Reductil, background statement; cited from earlier work
[2] = tested on: high-fat diet-fed mice; assay: Anti-obesity effect by repeated administration for 8 weeks in obesity model induced by high-fat diet; assay type: in vivo, C57BL/6 mice; conditions: HFD mice
Description: 6-week-old male C57BL/6 mice (Orient Bio) were used after being acclimated for one week. A high-fat diet was fed to induce obesity. D12451 (Calorie composition: 45% of fats, 35% of carbohydrates, and 20% of proteins, Research Diets, Inc.) was used as the high-fat diet, and Purina Rodent Chow was used as a normal diet. The mice were allowed to freely access feed and drinking water. The CMO1 mixture was administered together with the […] feed at a weight ratio of 0.1% (w/w) and 0.25% (w/w). Xenical™ (orlistat, Sigma, MO, USA), as a control drug, was administered together with the […] feed in a weight ratio of 0.1% (w/w). A daily dose of the CMO1 mixture, calculated based on an average daily feed intake, was 70 mg/kg/day in the case of 0.1%, and 190 mg/kg/day in the case of 0.25%, and a daily dose of Xenical™ was […]. Body weights and feed intakes were measured every week, and organs were excised and weighed in autopsy after 8 weeks and then stored at −80° C. In autopsy, blood was collected from the abdominal vein after laparotomy under deep anesthesia. The blood was stored in a cryogenic refrigerator according to analysis conditions and thawed immediately before initiating the experiment. Levels of total cholesterol, triglyceride, HDL cholesterol, and LDL cholesterol were analyzed using an automatic blood biochemistry analyzer (Hitachi, Japan). In order to analyze size changes in adipocytes and hepatocytes caused by accumulation of fats, the organ was immobilized with 10% neutralized formalin (Microme, USA) for 24 hours, embedded into paraffin blocks via a general tissue treatment process, and sectioned into 4 μm slices. The slices were hydrated and stained with hematoxylin and eosin (H&E). The stained tissue was observed using an optical microscope (BX51, Olympus, Japan) to measure sizes of cells. […] All measurement values of each experiment are expressed as mean±standard error. […]

[3] = target: T1, pancreatic lipase (Homo sapiens, UniProt P16233); conditions: background statement; cited from earlier work
T1 sequence (P16233 17-465): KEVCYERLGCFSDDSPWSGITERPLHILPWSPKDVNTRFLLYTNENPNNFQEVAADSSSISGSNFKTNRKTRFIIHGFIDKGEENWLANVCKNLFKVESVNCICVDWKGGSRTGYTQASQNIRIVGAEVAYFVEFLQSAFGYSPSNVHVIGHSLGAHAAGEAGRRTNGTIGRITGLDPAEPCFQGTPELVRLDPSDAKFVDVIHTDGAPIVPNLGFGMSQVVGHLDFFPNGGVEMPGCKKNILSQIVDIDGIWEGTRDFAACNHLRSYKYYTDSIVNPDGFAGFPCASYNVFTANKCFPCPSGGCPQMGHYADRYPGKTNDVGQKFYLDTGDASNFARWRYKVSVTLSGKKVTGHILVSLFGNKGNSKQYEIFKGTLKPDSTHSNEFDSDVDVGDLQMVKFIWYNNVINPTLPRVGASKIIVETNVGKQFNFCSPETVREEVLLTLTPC

[4] = during 8-week administration in feed

Row | SMILES | higher number of cardiovascular events versus a control group [1] [%] | hardness of excrement ([2]; 8-week administration in feed) | appearance of hair during administration [2, 4] | diarrhea (side effect) [2, 4] | inhibition of absorption of dietary fat [3]
1 | CC(C)CC(N(C)C)C1(c2ccc(Cl)cc2)CCC1 (centres unmarked) [Reductil, Sibutramine] | 16 | – | – | – | –
2 | CCCCCCCCCCC[C@@H](C[C@@H]1OC(=O)[C@H]1CCCCCC)OC(=O)[C@H](CC(C)C)NC=O [Xenical, Orlistat] | – | very soft excrement | oily and lumpy hair | serious diarrhea | approximately 30%
